Ends that are not written are not given here.
Experiments:
Type in all cases: cell-based
[1] = tested on: Pseudomonas aeruginosa ATCC 9027; conditions: ATCC 9027, 2 h
[2] = tested on: Candida albicans ATCC 10231; conditions: for minimum inhibition concentration: ATCC 10231, 2 h; for peptide concentration giving 75% inhibition of growth (value in parentheses): Mueller Hinton Broth, complete growth inhibition not achieved
Excerpt: (§1) The bolisin analogues of the present invention were examined for their suitability as antibiotic therapeutical agents by means of various biological tests. Thus, the chemically synthesized peptides were examined for their antimicrobial effectiveness against three Gram-positive and three Gram-negative bacterial strains as well as against a yeast.
(§2) The following microorganisms were used: • Gram-positive: Staphylococcus aureus ATCC 25923 • Enterococcus faecalis ATCC 51299 (vancomycin-resistant) • Streptococcus pneumoniae DSM 11865 (penicillin-resistant) • Gram-negative: Escherichia coli ATCC 25922 • Pseudomonas aeruginosa ATCC 9027 • Klebsiella pneumoniae ATCC 10031 • Yeast: Candida albicans ATCC 10231
(§3) The antibiotic activity of bolisin analogues was examined by determining the minimum inhibition concentration. […] This method allows to obtain a quantitative result about the antimicrobial potency of the peptides. These examinations were performed by analogy with the recommendations (M7-A3) edited by the NCCLS (National Committee for Clinical Laboratory Standards) by applying a dilution test in a liquid medium using chemically synthesized peptides (peptide sequences according to claims 1 to 3). Mueller Hinton Broth was used as the test medium according to the NCCLS recommendations unless indicated otherwise. […] The minimum inhibition concentrations are stated in [μg/ml].
(§4) A complete growth inhibition could not be achieved in this case. For determining the minimum inhibition concentration, the following microorganisms were used: • 1. Staphylococcus aureus ATCC 25923 • 2. Enterococcus faecalis ATCC 51299 (vancomycin-resistant) • 3. Streptococcus pneumoniae DSM 11865 (penicillin-resistant) • 4. Escherichia coli ATCC 25922 • 5. Pseudomonas aeruginosa ATCC 9027 • 6. Klebsiella pneumoniae ATCC 10031 • 7. Candida albicans ATCC 10231

[3] = tested on: Escherichia coli ATCC 25922; conditions: ATCC 25922, 2 h
Excerpt: as §1, §2, §3, §4

[4] = tested on: Staphylococcus aureus ATCC 25923; conditions: ATCC 25923, 2 h
Excerpt: as §1, §2, §3, §4

[5] = tested on: Enterococcus faecalis ATCC 51299 (vancomycin-resistant); conditions: ATCC 51299, 2 h
Excerpt: as §1, §2, §3, §4

[6] = tested on: Klebsiella pneumoniae ATCC 10031; conditions: ATCC 10031, 2 h
Excerpt: as §1, §2, §3, §4

[7] = tested on: Streptococcus pneumoniae DSM 11865 (penicillin-resistant); conditions: DSM 11865, 2 h
Excerpt: as §1, §2, §3, §4

[8] = tested on: Klebsiella pneumoniae ATCC 10031; conditions: Tryptic Soy Broth (3 g/l) with 150 mM sodium chloride; complete growth inhibition not achieved
Procedure: (§5) The antibiotic activity of bolisin analogues was examined by determining the minimum inhibition concentration. The minimum inhibition concentration of an analogue designates the lowest peptide concentration which is required to inhibit the growth of microorganisms completely after an incubation time of 18±2 h. This method allows to obtain a quantitative result about the antimicrobial potency of the peptides. These examinations were performed by analogy with the recommendations (M7-A3) edited by the NCCLS (National Committee for Clinical Laboratory Standards) by applying a dilution test in a liquid medium using chemically synthesized peptides (peptide sequences according to claims 1 to 3). Mueller Hinton Broth was used as the test medium according to the NCCLS recommendations unless indicated otherwise. […] The minimum inhibition concentrations are stated in [μg/ml].
as §4
(§6) Also for these examinations, the minimum inhibition concentration of the peptides against Gram-positive and Gram-negative microorganisms (microorganisms 1-6) was determined. Tryptic Soy Broth (3 g/l) with an addition of salt in physiological concentration (150 mM sodium chloride) was used as the test medium.
(§7) A complete growth inhibition could not be achieved in this case.

[9] = tested on: Pseudomonas aeruginosa ATCC 9027; conditions: Mueller Hinton Broth; complete growth inhibition not achieved
Excerpt: as §1, §2, §5, §4

[10] = tested on: Staphylococcus aureus ATCC 25923; conditions: Tryptic Soy Broth (3 g/l) with 150 mM sodium chloride; complete growth inhibition not achieved
Procedure: as §5, §4, §6, §7

[11] = tested on: Streptococcus pneumoniae DSM 11865 (penicillin-resistant); conditions: Tryptic Soy Broth (3 g/l) with 150 mM sodium chloride; complete growth inhibition not achieved
Procedure: as §5, §4, §6, §7

[12] = tested on: Enterococcus faecalis ATCC 51299 (vancomycin-resistant); conditions: Tryptic Soy Broth (3 g/l) with 150 mM sodium chloride; complete growth inhibition not achieved
Procedure: as §5, §4, §6, §7

Row | Substance | minimum inhibition concentration [1] [mg/L] | minimum inhibition concentration [2] [mg/L] | minimum inhibition concentration [3] [mg/L] | minimum inhibition concentration [4] [mg/L] | minimum inhibition concentration [5] [mg/L] | minimum inhibition concentration [6] [mg/L] | minimum inhibition concentration [7] [mg/L] | peptide concentration giving 75% inhibition of growth (value in parentheses) [8] | peptide concentration giving 75% inhibition of growth (value in parentheses) [9] | peptide concentration giving 75% inhibition of growth (value in parentheses) [2] | peptide concentration giving 75% inhibition of growth (value in parentheses) [10] | peptide concentration giving 75% inhibition of growth (value in parentheses) [11] | peptide concentration giving 75% inhibition of growth (value in parentheses) [12]
1 | YIVRKIRSARKRRKALK-OH [BOL-83, YIVRKIRSARKRRKALK] | >300 | 300 | >300 | >300 | >300 | >300 | >300 | – | – | – | – | – | –
2 | YIVYKIRRARKRRKALK-OH [BOL-52, YIVYKIRRARKRRKALK] | – | – | >300 | 300 | 200 | 75 | 200 | (300) μg/ml | (37.5) μg/ml | (37.5) μg/ml | – | – | –
3 | YIVYKIRWAWKRRKALK-OH [BOL-48, YIVYKIRWAWKRRKALK] | 200 | 9.375 | 18.75 | 9.375 | 12.5 | 4.7 | 9.375 | – | 6.5 µg/mL | – | – | – | –
4 | KYIVYKIRSAWKRRKALK-OH [BOL-86, KYIVYKIRSAWKRRKALK] | – | 18.75 | 150 | 75 | 200 | 50 | 150 | – | (18.75) μg/ml | – | (300) μg/ml | (300) μg/ml | –
5 | YIVYKIRWARKRWKALK-OH [BOL-51, YIVYKIRWARKRWKALK] | 300 | – | 50 | 37.5 | 25 | 18.75 | 12.5 | – | 25 µg/mL | (18.75) μg/ml | – | – | –
6 | YIVWKIRSARKRWKALK-OH [BOL-81, YIVWKIRSARKRWKALK] | – | 75 | 300 | 300 | 150 | 25 | 75 | – | (18.75) μg/ml | – | (300) μg/ml | (75) μg/ml | –
7 | YIVYKIRWAWKRKKALK-OH [BOL-61, YIVYKIRWAWKRKKALK] | 300 | 9.375 | 25 | 37.5 | 25 | 18.75 | 25 | – | 75 µg/mL | – | – | – | –
8 | YIVYKIRSADKRSKALK-OH [Bolisin] | >300 | >300 | >300 | >300 | >300 | >300 | >300 | – | – | – | – | – | –
9 | YIVYKIRSAWKRRKALK-OH [BOL-44, YIVYKIRSAWKRRKALK] | – | 37.5 | 200 | 150 | >300 | 75 | 200 | – | (75) μg/ml | – | – | – | (300) μg/ml
10 | YIRYKIRSARKRRKALK-OH [BOL-17, YIRYKIRSARKRRKALK] | 200 | – | 37.5 | 37.5 | 200 | 9.375 | 300 | – | – | – | – | – | –
11 | YIVYKIRSARKRWK-OH [BOL-71, YIVYKIRSARKRWK] | – | 300 | 300 | 200 | 200 | 300 | 300 | – | (200) μg/ml | – | – | – | (300) μg/ml
12 | YIRYKRRSARKRRKALK-OH [BOL-18, YIRYKRRSARKRRKALK] | 300 | – | 18.75 | 18.75 | >300 | 37.5 | >300 | – | – | – | – | – | –
13 | YIVYKIRRAWKRRKALK-OH [BOL-54, YIVYKIRRAWKRRKALK] | – | 18.75 | 100 | 200 | 100 | 18.75 | 75 | (200) μg/ml | (25) μg/ml | – | – | – | –
14 | YIVYKIRWARKRRKALK-OH [BOL-50, YIVYKIRWARKRRKALK] | – | 9.375 | 50 | 37.5 | 25 | 9.375 | 18.75 | – | (6.25) μg/ml | – | – | – | –
15 | YIVRKIRSAWKRWKALK-OH [BOL-79, YIVRKIRSAWKRWKALK] | – | 4.7 | 3.125 | 9.375 | >300 | 2.35 | 300 | – | (4.7) μg/ml | – | – | – | –

Reference: US7449545B2, “Antimicrobial bolisin peptides” (IPF Pharmaceuticals GmbH, priority 2001, dated 2008)
